# Test results taken from patent US12071437B1, “Pyrazolo[1,5-a]pyrido[4,3-e]pyrimidine-2-carboxylic acids as CK2 inhibitors” (KING FAISAL UNIVERSITY, priority 2024, dated 2024).
# Tests used:
# [1] = system: MCF7 (breast) cancer cells; test: In vitro cytotoxic activity MTT assay, MCF7; format: cell-based; settings: Homo sapiens, 96 hours exposure, 50% inhibition of cell proliferation, read-out: Cytotoxicity activity IC50, MCF7 (breast)
# Procedure: (§1) Compounds 1-16 were screened for their in vitro cytotoxic activity utilizing a 3-(4,5-dimethyl-thiazol-2-yl)-2,5-diphenyltetrazolium bromide (MTT) assay against selected cancer human cell lines consisting of PC3 (prostate), HCT116 (colon), A375 (melanoma), H1299 (lung), MIAPaCa-2 (pancreas), HL60 (leukemia), MCF7 (breast), MDA-MB-231 (breast) (T. Mosmann, J. Immunol. Meth., 1983, 65, 55-63). The cells were cultured at 37° C. in RMPI1640 medium supplemented with 10% fetal bovine serum, 50 IU/mL penicillin, and 50 μg/mL streptomycin in a 5% CO2 incubator. All cells were sub-cultured 3 times/week by trypsinisation. Viable cells were seeded and allowed to adhere for 12 hours before a test drug was added in 96-well plates at an initial density of 1.0×10^5 cells/mL. Tumor cell lines were separately exposed to various concentrations of the tested compounds followed by incubation at a temperature of 37° C. during 96 hours inside a medium of fresh RMPI1640. Cells were subsequently incubated at 37° ° C. using MTT at 0.5 mg/mL during 4 hours. After removal of supernatant, formazan crystals were dissolved in isopropanol and the optical density was measured at 570 nm. CX-4945 was used as a positive control.
# [2] = system: MDA-MB-231 (breast) cancer cells; test: In vitro cytotoxic activity MTT assay, MDA-MB-231; format: cell-based; settings: Homo sapiens; MDA-MB-231 cells, 96 hours exposure, 50% inhibition of cell proliferation; read-out: Cytotoxicity activity IC50, MDA-MB-231 (breast)
# Procedure: as §1
# [3] = system: HL60 (leukemia) cancer cells; test: In vitro cytotoxic activity MTT assay, HL60; format: cell-based; settings: Homo sapiens, HL-60, 96 hours exposure, 50% inhibition of cell proliferation, read-out: Cytotoxicity activity IC50, HL60 (leukemia)
# Procedure: as §1
# [4] = system: A375 (melanoma) cancer cells; test: In vitro cytotoxic activity MTT assay, A375; format: cell-based; settings: Homo sapiens, A-375, 96 hours exposure, 50% inhibition of cell proliferation, read-out: Cytotoxicity activity IC50, A375 (melanoma)
# Procedure: as §1
# [5] = system: PC3 (prostate) cancer cells; test: In vitro cytotoxic activity MTT assay, PC3; format: cell-based; settings: Homo sapiens, PC-3, 96 hours exposure, 50% inhibition of cell proliferation, read-out: Cytotoxicity activity IC50, PC3 (prostate)
# Procedure: as §1
# [6] = target: T1, recombinant human CK2 (RRββ-holoenzyme) (Homo sapiens, UniProt P68400); test: CK2 Kinase Assay (33P-ATP, substrate peptide RRRDDDSDDD); format: biochemical; settings: final ATP 15 μM, 10 min at 30° C., read-out: protein kinase CK2 inhibition IC50
# T1 construct: purchased Millipore
# Procedure: CK2 Kinase Assay was conducted using the protocol as described in Pierre F. et al; J. Med. Chem. 2011, 54, 635-654. The tested compounds in aqueous solution were added at a volume of 10 μL to a reaction mixture comprising 10 μL of assay dilution buffer (ADB; 20 mM MOPS, pH 7.2, 25 mM β-glycerol phosphate, 5 mM EGTA, 1 mM sodium orthovanadate, and 1 mM dithiothreitol), 10 μL of substrate peptide (RRRDDDSDDD, dissolved in ADB at a concentration of 1 mM), 10 μL of recombinant human CK2 (RRββ-holoenzyme, 25 ng dissolved in ADB; Millipore). Reactions were initiated by the addition of 10 μL of ATP solution (90% 75 mMMgCl2, 75 μM ATP (final ATP concentration: 15 μM) dissolved in ADB; 10% [γ-33P] ATP (stock 1 mCi/100 μL; 3000 Ci/mmol (Perkin-Elmer) and maintained for 10 min at 30° C. The reactions were quenched with 100 μL of 0.75% phosphoric acid and then transferred to and filtered through a phosphor cellulose filter plate (Millipore). After washing each well five times with 0.75% phosphoric acid, the plate was dried under vacuum for 5 min and, following the addition of 15 μL of scintillation fluid to each well, the residual radioactivity was measured using a Wallac […]. The IC50 values were derived from eight concentrations of test inhibitors.
# [7] = system: MIAPaCa-2 (pancreas) cancer cells; test: In vitro cytotoxic activity MTT assay, MIAPaCa-2; format: cell-based; settings: Homo sapiens, MIA PaCa-2; MIAPaCa-2 cells, 96 hours exposure, 50% inhibition of cell proliferation; read-out: Cytotoxicity activity IC50, MIAPaCa-2 (pancreas)
# Procedure: as §1
# [8] = system: H1299 (lung) cancer cells; test: In vitro cytotoxic activity MTT assay, H1299; format: cell-based; settings: Homo sapiens, NCI-H1299, 96 hours exposure, 50% inhibition of cell proliferation, read-out: Cytotoxicity activity IC50, H1299 (lung)
# Procedure: as §1
# [9] = system: HCT116 (colon) cancer cells; test: In vitro cytotoxic activity MTT assay, HCT116; format: cell-based; settings: Homo sapiens, HCT-116, 96 hours exposure, 50% inhibition of cell proliferation, read-out: Cytotoxicity activity IC50, HCT116 (colon)
# Procedure: as §1
# T1 sequence (P68400 whole entry): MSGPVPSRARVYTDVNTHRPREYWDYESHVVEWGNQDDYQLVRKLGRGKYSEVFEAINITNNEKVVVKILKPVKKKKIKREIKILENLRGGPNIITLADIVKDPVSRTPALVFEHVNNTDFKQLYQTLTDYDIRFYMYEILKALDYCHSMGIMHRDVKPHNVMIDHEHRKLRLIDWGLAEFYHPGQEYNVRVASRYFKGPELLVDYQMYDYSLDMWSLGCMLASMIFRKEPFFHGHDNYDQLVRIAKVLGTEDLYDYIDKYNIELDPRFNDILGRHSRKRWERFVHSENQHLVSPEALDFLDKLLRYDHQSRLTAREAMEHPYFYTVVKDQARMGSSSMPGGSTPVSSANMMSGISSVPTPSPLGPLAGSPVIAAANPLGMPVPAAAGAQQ
# T1 sequence (P67870 whole entry partner): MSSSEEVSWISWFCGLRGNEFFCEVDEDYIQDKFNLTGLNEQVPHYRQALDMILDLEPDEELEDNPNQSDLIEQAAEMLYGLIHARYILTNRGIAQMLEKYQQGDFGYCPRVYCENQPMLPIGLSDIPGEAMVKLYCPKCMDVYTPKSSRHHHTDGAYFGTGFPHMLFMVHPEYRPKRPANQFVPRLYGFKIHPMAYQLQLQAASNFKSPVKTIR
smiles,measurement,setting,value
"O=C(O)c1cc2nc(Nc3cccc(Cl)c3)c3ccncc3n2n1 [Compound 1, 5-((3-Chlorophenyl)Amino)Pyrazolo[1,5-a]Pyrido[4,3-e]Pyrimidine-2-Carboxylic Acid]",IC50,[1],5400 nM
same,IC50,[2],4800 nM
same,IC50,[3],3200 nM
same,IC50,[4],4500 nM
same,IC50,[5],1700 nM
same,IC50,[6],72 nM
same,IC50,[7],1300 nM
same,IC50,[8],1900 nM
same,IC50,[9],1600 nM
